The values that follow come from PubChem BioAssay (NCI).

Among the test systems are LOX IMVI melanoma; MALME-3M melanoma; MDA-MB-435; NCI-H23 lung; OVCAR-3 ovarian; OVCAR-8 ovarian; SK-MEL-5 melanoma; SNB-75 CNS; TK-10 renal; UACC-257 melanoma.
Common to all, as to assay: NCI tumour cell line growth inhibition, 48 h

SMILES strings stand for the structures. Values joined by “and” are separate entries in the source; they are usually repeats but may differ in a detail not shown here. Equal values may be shown once.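 Results reflect a 48-hour exposure of cells in 96-well plates to compound at five concentrations. At the GI50, growth is halved. Definition used: TGI = concentration required for complete inhibition of growth.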

In the case of `CN1C(=O)c2ccccc2NC(=O)C12O[C@@H]2c1cccc(O)c1` (stereo not given in full), the TGI in the assay with LOX IMVI melanoma, in the assay on MALME-3M melanoma, in the assay on MDA-MB-435, with NCI-H23 lung, with OVCAR-3 ovarian and with OVCAR-8 ovarian was over 100 µM throughout. Also, the TGI in the assay on SK-MEL-5 melanoma, in the assay on SNB-75 CNS, in the assay with TK-10 renal and in the assay with UACC-257 melanoma was over 100 µM in each case.
Turning to `O=c1[nH]c(=O)n(C2OC(CO)C(O)C(O)C2O)cc1F` (stereo not given), the TGI in the assay with LOX IMVI melanoma, in the assay on MALME-3M melanoma, in the assay with MDA-MB-435, with NCI-H23 lung, in the assay with OVCAR-3 ovarian and in the assay on OVCAR-8 ovarian was over 100 µM in each case. Besides, the TGI with SK-MEL-5 melanoma, in the assay on SNB-75 CNS, in the assay with TK-10 renal and in the assay with UACC-257 melanoma was over 100 µM throughout.
As for `C=C[C@H]1C[C@@H]2C[C@@H]3[C@H]4C/C=C\C(=O)NCCCC5NC(=O)C(=C(O)/C=C/[C@@H]4CC(=O)[C@H]3[C@@H]2[C@H]1C)C5=O` (stereo not given in full), the GI50 in the assay with LOX IMVI melanoma was 0.187 µM; in the assay on MALME-3M melanoma, 0.225 µM; in the assay with MDA-MB-435, 0.203 µM; in the assay on NCI-H23 lung it was 0.627 µM; in the assay on OVCAR-3 ovarian, 0.183 µM; with OVCAR-8 ovarian it was 0.193 µM. Also, the GI50 is 0.161 µM with SK-MEL-5 melanoma, 0.15 µM with SNB-75 CNS, 0.192 µM with TK-10 renal and 0.191 µM in the assay with UACC-257 melanoma. Moreover, the TGI with LOX IMVI melanoma was determined as 0.368 µM; in the assay with MALME-3M melanoma, 0.56 µM; in the assay with MDA-MB-435 it was 0.408 µM; in the assay with NCI-H23 lung, 1.47 µM; in the assay with OVCAR-3 ovarian it was 0.334 µM; in the assay with OVCAR-8 ovarian it was 0.38 µM. The TGI stood at 0.309 µM with SK-MEL-5 melanoma, 0.289 µM with SNB-75 CNS, 0.419 µM with TK-10 renal and 0.369 µM in the assay with UACC-257 melanoma.
Take `O=C1OC(c2ccco2)=N/C1=C\c1cccc([N+](=O)[O-])c1`: the TGI with LOX IMVI melanoma, with MALME-3M melanoma, with MDA-MB-435, in the assay on NCI-H23 lung, with OVCAR-3 ovarian and in the assay with OVCAR-8 ovarian was over 100 µM throughout. For the same compound, the TGI in the assay on SK-MEL-5 melanoma, in the assay with SNB-75 CNS, in the assay with TK-10 renal and with UACC-257 melanoma was over 100 µM throughout.
On to `Cn1c2ccccc2c2c3[nH]c(=O)[nH]c(=O)c3c3c4ccccc4n(C)c3c21`, for which the GI50 is 2.13 µM in the assay with LOX IMVI melanoma; 2.03 µM in the assay with MALME-3M melanoma; 3.05 µM in the assay with MDA-MB-435; 3.47 µM in the assay on NCI-H23 lung; 2.38 µM with OVCAR-3 ovarian; 2.94 µM with OVCAR-8 ovarian. Further, the GI50 is 1.49 µM with SNB-75 CNS, 1.91 µM with TK-10 renal and over 100 µM in the assay on UACC-257 melanoma. Also, the TGI is 11.9 µM with LOX IMVI melanoma; 6.14 µM in the assay with MALME-3M melanoma; over 100 µM with MDA-MB-435; 19.4 µM with NCI-H23 lung; 7 µM in the assay on OVCAR-3 ovarian; 14.1 µM with OVCAR-8 ovarian. In addition, the TGI in the assay on SNB-75 CNS was 3.27 µM; in the assay with TK-10 renal, 16.5 µM; with UACC-257 melanoma, over 100 µM.
As to `CC(C)(C)c1cc(NC(=O)Cc2ccc(-c3cnc4cc(-c5cnn(CCN6CCOCC6)c5)ccc4n3)cc2)no1`, the GI50 is 0.248 µM and 0.416 µM and 0.0821 µM with LOX IMVI melanoma; 0.187 µM and 0.278 µM and 0.0505 µM in the assay on MALME-3M melanoma; 0.356 µM and 0.452 µM and 0.0989 µM in the assay on MDA-MB-435; 0.627 µM and 1.08 µM and 0.131 µM in the assay with NCI-H23 lung; 0.482 µM and 0.675 µM and 0.105 µM in the assay on OVCAR-3 ovarian; 0.481 µM and 0.507 µM and 0.121 µM in the assay with OVCAR-8 ovarian. For the same compound, the GI50 with SK-MEL-5 melanoma was 0.612 µM and 0.674 µM and 0.232 µM. In addition, the TGI with LOX IMVI melanoma was 50 µM and > 100 µM and > 3 µM; in the assay on MALME-3M melanoma, 11.3 µM and 2.82 µM; in the assay with MDA-MB-435 it was 50 µM and > 100 µM and > 3 µM; in the assay on NCI-H23 lung, 50 µM and > 100 µM and > 3 µM; in the assay on OVCAR-3 ovarian, 50 µM and > 100 µM and > 3 µM; in the assay on OVCAR-8 ovarian, 50 µM and > 100 µM and > 3 µM. Also, the TGI in the assay on SK-MEL-5 melanoma was 50 µM and 11.3 µM and > 0.95 µM; with SNB-75 CNS it was 4.39 µM and 38.4 µM and > 3 µM; in the assay with TK-10 renal, 50 µM and > 100 µM and > 3 µM; in the assay with UACC-257 melanoma it was 50 µM and > 100 µM and > 3 µM.
For `Cc1nc(-c2ccccc2)c(-c2ccccc2)s1`, the TGI was 37.1 µM with LOX IMVI melanoma; 46.8 µM in the assay on MALME-3M melanoma; 69.1 µM with MDA-MB-435; 97.7 µM in the assay with NCI-H23 lung; 87.4 µM in the assay on OVCAR-3 ovarian; over 100 µM with OVCAR-8 ovarian. For the same compound, the TGI was 27.5 µM with SK-MEL-5 melanoma, over 100 µM in the assay on SNB-75 CNS, 52.8 µM in the assay with TK-10 renal and 79.9 µM in the assay with UACC-257 melanoma.
As to `O=C(O)[C@@H]1CCCCN1Cc1cc2cc3c(cc2c2cc(OCc4ccccc4)ccc12)OCO3`, the GI50 in the assay with LOX IMVI melanoma was 1.75 µM; with MALME-3M melanoma it was 2.8 µM; in the assay on MDA-MB-435, 3.4 µM; in the assay on NCI-H23 lung it was 21.6 µM; with OVCAR-3 ovarian, 6.79 µM; in the assay on OVCAR-8 ovarian, 6.62 µM. Further, the GI50 was 1.62 µM in the assay on SK-MEL-5 melanoma, 2.96 µM in the assay on SNB-75 CNS, 3.36 µM in the assay with TK-10 renal and 3.4 µM in the assay on UACC-257 melanoma. Further, the TGI in the assay with LOX IMVI melanoma stood at 3.56 µM; in the assay on MALME-3M melanoma it was 9.41 µM; in the assay with MDA-MB-435 it was 17.5 µM; in the assay with NCI-H23 lung, 45.7 µM; with OVCAR-3 ovarian, 36.2 µM; with OVCAR-8 ovarian, 29 µM. Further, the TGI is 3.61 µM in the assay on SK-MEL-5 melanoma, 8.91 µM with SNB-75 CNS, over 100 µM with TK-10 renal and 12 µM with UACC-257 melanoma.
As to `Cc1ccc2[nH]c(C(=O)NN3C(=O)C(C)SC34CCCC(C)C4)c(-c3ccccc3)c2c1` (stereo not given), the GI50 is over 100 µM in the assay with LOX IMVI melanoma; 69 µM with MALME-3M melanoma; over 100 µM in the assay on MDA-MB-435; over 100 µM in the assay on NCI-H23 lung; 97.3 µM with OVCAR-3 ovarian; 34.5 µM in the assay with OVCAR-8 ovarian. In addition, the GI50 with SK-MEL-5 melanoma was over 100 µM; in the assay with SNB-75 CNS it was 60.1 µM; in the assay with TK-10 renal it was 89.4 µM; with UACC-257 melanoma, 66.8 µM. The TGI with LOX IMVI melanoma, with MALME-3M melanoma, in the assay on MDA-MB-435, with NCI-H23 lung, in the assay on OVCAR-3 ovarian and in the assay on OVCAR-8 ovarian was over 100 µM each time. For the same compound, the TGI in the assay with SK-MEL-5 melanoma, in the assay on SNB-75 CNS, in the assay with TK-10 renal and in the assay on UACC-257 melanoma was over 100 µM throughout.
